Measured values published in paper PMC10788917 (Journal of Medicinal Chemistry, 2023).
Read-outs that look alike come from different tables or passages of the source.

Legend:
HDAC8 = biological target: T1, HDAC8 (Homo sapiens, UniProt Q9BY41); test: Covalent labeling, tryptic digestion and MS/MS; assay type: binding
T1 construct: one additional N-terminal residue 'H' (His) (N)
T1 sequence (Q9BY41 1-377): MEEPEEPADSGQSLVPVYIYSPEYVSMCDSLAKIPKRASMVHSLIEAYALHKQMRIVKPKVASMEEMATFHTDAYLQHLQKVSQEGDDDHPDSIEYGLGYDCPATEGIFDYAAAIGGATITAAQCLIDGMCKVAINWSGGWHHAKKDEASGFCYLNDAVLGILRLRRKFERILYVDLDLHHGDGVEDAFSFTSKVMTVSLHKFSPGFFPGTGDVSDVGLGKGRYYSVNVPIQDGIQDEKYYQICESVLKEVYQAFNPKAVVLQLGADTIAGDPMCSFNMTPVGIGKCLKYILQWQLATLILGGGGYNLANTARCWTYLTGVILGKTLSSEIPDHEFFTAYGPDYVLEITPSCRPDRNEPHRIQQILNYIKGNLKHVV
Description: The covalent labeling procedure was conducted as described previously with slight modifications.[31] First, 25 μM HDAC8 was treated with 250 μM covalent probes for 1 h at 30 °C in the assay buffer described above. The protein was then precipitated by the addition of 10% TCA and then centrifuged at 18000g for 15 min. The supernatant was removed, and the dry pellet was diluted in buffer [50 mM NH4HCO3 (pH 7.8)]. After the fragment labeling was completed, 50 μL of the sample and 10 μL of a 0.2% (w/v) RapiGest SF (Waters, Milford, MA) solution buffered with 50 mM ammonium bicarbonate were mixed (pH 7.8), 3.3 μL of 45 mM DTT in 100 mM NH4HCO3 was added to reduce artificial oxidized cysteine residues, and the mixture was kept at 37.5 °C for 30 min. After the sample was cooled to room temperature, reduction was quenched, and nascent thiols were alkylated by adding 4.16 μL of 100 mM iodoacetamide in 100 mM NH4HCO3. Samples were placed in the dark at room temperature for 30 min. The reduced and alkylated protein was then digested with 10 μL (1 mg/mL) of trypsin (the enzyme:protein ratio was 1:10) (Sigma, St. Louis, MO). The sample was incubated at 37 °C overnight. To degrade the surfactant, 7 μL of a formic acid (500 mM) solution was added to the digested protein sample, a final concentration of 40 mM (pH ≈2) was obtained, and the mixture was further incubated at 37 °C for 45 min. For LC-MS analysis, the acid-treated sample was centrifuged for 5 min at 13 000 rpm and the supernatant was pipetted into a microvial.
For procedure A, an AB Sciex 6500 QTRAP hybrid triple quadruple linear ion trap mass spectrometer, equipped with a Turbo V ion source in electrospray mode and an Agilent 1100 Binary Pump HPLC system (Agilent Technologies, Waldbronn, Germany) consisting of an autosampler, was used for LC-MS/MS analysis. Data acquisition and processing were performed using Analyst version 1.6.2 (AB Sciex Instruments). Chromatographic separation was achieved by using the Discovery BIO Wide Pore C-18-5 column (250 mm × 2.1 mm, 5 μm, 300 Å). The sample was eluted with a gradient of solvent A (0.1% formic acid in water) and solvent B (0.1% formic acid in ACN). The flow rate was set to 0.2 mL min^–1. The initial process for separation was as follows: 5% B for 7 min, followed by a linear gradient to 90% B by […], 90% B from 60 to 64 min, and from 64 to 65 min back to the initial condition with 5% eluent B retained for 10 min. The injection volume was 10 μL. An information-dependent acquisiton (IDA) LC-MS/MS experiment was used to identify the modified tryptic peptide fragments. An enhanced MS scan (EMS) was used as a survey scan, and an enhanced product ion scan (EPI) was the dependent scan. Precursor ion selection criteria: ions greater than m/z 400, which exceeds 106 counts, exclude former target ions for 30 s after two occurrence(s). The scan rates in both survey and dependent scans were 1000 Da/s. Nitrogen was used as the nebulizer gas (GS1), heater gas (GS2), and curtain gas with the optimum values set at 50, 40, and 40 (arbitrary units), respectively. The source temperature was 350 °C, and the ion spray voltage was set at 5000 V. The declustering potential value was set to 150 V. The collision energy in EPI experiments was set to rolling collision energy mode, where the actual value was set on the basis of the mass and charge state of the selected ion. GPMAW version 4.2 was used to analyze the large number of MS-MS spectra and identify the modified tryptically digested peptides.
For procedure B, to obtain more precise information about the structure, samples were further analyzed by a Triple TOF 5600+ hybrid Quadrupole-TOF LC/MS/MS system (Sciex) equipped with a DuoSpray IonSource coupled with a Shimadzu Prominence LC20 UFLC system consisting of a quaternary pump, an autosampler, and a thermostated column compartment. Data were acquired and processed using Analyst TF version 1.7.1 (AB Sciex Instruments). […]

SET2 cells = test: CellTiter-Blue cell viability assay; assay type: cell-based; conditions: Homo sapiens, SET-2; 72 h, HDAC8-independent line, Figure 7B
Description: (§1) All cell lines were purchased from DSMZ (Braunschweig, Germany). The cell lines were regularly tested to exclude mycoplasma contamination and authenticated. […] Media were supplemented with 10% fetal calf serum (FCS), 10 units/mL penicillin, 10 μg/mL streptomycin, and 2 mM L-glutamine (all Gibco, Thermo Fisher Scientific).
(§2) To determine the IC50 of the selected compounds on the cell lines, the CellTiter-Blue cell viability assay (Promega) was performed. For this, cells were seeded in 96-well flat-bottom plates at a cell density of 10 000 cells/well. Cells were treated in triplicate with the compound of interest at various concentrations or with 10 μM Bortezomib (S1013; Selleck Chemicals, Houston, TX), as a positive control. […] Plates were measured using a GloMax plate reader (Promega), and IC50 values were determined by nonlinear regression using GraphPad Prism version 9.1.1 (GraphPad Software, Inc.), and the data are reported as mean values ± the standard error of the mean.

MV4-11 cells = test: CellTiter-Blue cell viability assay; assay type: cell-based; conditions: Homo sapiens, 72 h, HDAC8-dependent line, Figure 7B
Description: as §1, §2

OCI-AML3 cells = test: CellTiter-Blue cell viability assay; assay type: cell-based; conditions: Homo sapiens, OCI-AML-3; 72 h, HDAC8-dependent line, Figure 7B
Description: as §1, §2

HEL cells = test: CellTiter-Blue cell viability assay; assay type: cell-based; conditions: Homo sapiens, 72 h, HDAC8-independent line, Figure 7B
Description: as §1, §2

THP-1 cells = test: CellTiter-Blue cell viability assay; assay type: cell-based; conditions: Homo sapiens, 72 h
Description: as §1, §2

MOLM-13 cells = test: CellTiter-Blue cell viability assay; assay type: cell-based; conditions: Homo sapiens, 72 h, HDAC8-dependent line, Figure 7B
Description: as §1, §2

Compound | MS/MS: modified HDAC8 peptide [148-165] (HDAC8; 25 μM HDAC8, 250 μM probe, 1 h) | MS/MS: modified HDAC8 peptide [241-250] (HDAC8; 25 μM HDAC8, 250 μM probe, 1 h) | MS/MS: modified HDAC8 peptide [260-287] (HDAC8; 25 μM HDAC8, 250 μM probe, 1 h) | MS/MS: modified HDAC8 peptide [1-34] (HDAC8; 25 μM HDAC8, 250 μM probe, 1 h) | also measured
C[n+]1ccccc1I [A3+] | modified | modified | – | – | –
C[n+]1ccc(I)cc1 [C3+] | modified | modified | modified | – | MS/MS: modified HDAC8 peptide [33-83] (HDAC8; 25 μM HDAC8, 250 μM probe, 1 h): modified
C#Cc1cc[n+](C)cc1 [C6+] | modified | modified | – | modified | –
C[n+]1cccnc1Cl [D1+] | modified | modified | – | modified | –
C[n+]1cccnc1Br [D2+] | modified | modified | – | – | –
C[n+]1cccnc1I [D3+] | modified | modified | modified | modified | –
C#Cc1nccc[n+]1C [D6+] | – | – | – | modified | –
C[n+]1cncc(Br)c1 [F2+] | modified | – | modified | modified | –
C[n+]1cncc(I)c1 [F3+] | modified | – | modified | modified | MS/MS: modified HDAC8 peptide [327-357] (HDAC8; 25 μM HDAC8, 250 μM probe, 1 h): modified
C#Cc1c[n+](C)ccn1 [G6+] | modified | – | modified | modified | –
C#Cc1c[n+](C)ccc1NC(=O)CC(=O)N1Cc2ccccc2C1.[I-] [compound 3, 3-Ethynyl-4-[3-(isoindolin-2-yl)-3-oxopropanamido]-1-methylpyridin-1-ium Iodide] | – | – | – | – | IC50 (SET2 cells): > 200 µM; IC50 (MV4-11 cells): 8.23 ± 0.12 µM; IC50 (OCI-AML3 cells): 27.2 ± 5.86 µM; IC50 (HEL cells): > 200 µM; IC50 (THP-1 cells; Figure 7A, read-out: cell viability IC50, THP-1): 46.5 µM; IC50 (THP-1 cells; HDAC8-independent line, Figure 7B, read-out: THP-1 IC50): 78.1 ± 32.8 µM; IC50 (MOLM-13 cells): 7.08 ± 1.07 µM; covalent labeling of HDAC8 cysteine by tryptic digestion and MS/MS (HDAC8): proved Cys153 covalent labeling
